Marks after values point to notes of the source that are not given here.
Legend:
[1] = system: skin barrier and inflammation biomarkers in lesional skin biopsies; assay: Biomarker gene expression in lesional skin biopsies by qRT-PCR (TLDA), Example 3; assay type: in vivo, human; conditions: only responder population, 3 weeks
Method: (§1) Patients received topical applications of a niclosamide 2% composition and vehicle once daily for 3 weeks, followed by a 1-week follow up period. Topical niclosamide 2% and vehicle was applied on two separate target lesions of atopic dermatitis (lesions of at least 3×3-cm that are at least 2 cm apart, excluding the face, scalp, genitals, hands, and feet). The application areas (5×5-cm) were randomized (1:1) to once daily application of niclosamide 2% or vehicle at 5 mg/cm^2 without occlusion 6 days per week. Patients came to the study site for all study product application for a total of 3 weeks.
(§2) Three skin biopsies were collected in all patients (one from lesional skin at baseline, pre-dosing at Day 1, and two from lesional skin at Day 22 (one where topical niclosamide 2% had been applied and one where the vehicle had been applied). The lesional skin biopsies were analysed for skin thickness and inflammation biomarkers.
Skin barrier and inflammation biomarker levels were determined from lesional skin biopsies from application areas.
(§3) The skin biopsy samples were analysed by immunohistochemistry (IHC), and by gene expression studies by RT-PCR using TaqMan Low Density Array (TLDA), and by microarray using Affymetrix U133A Plus 2. The immunohistochemistry (IHC) was used to analyse cell biomarkers. The methodologies as disclosed by Guttman-Yassky et al, “Major differences in inflammatory dendritic cells and their products distinguish atopic dermatitis from psoriasis”, The Journal of Allergy and Clinical Immunology, vol. 119, issue 5, pages 1210-1217, 2007, were followed except for that U133A Plus 2-set Gene Chip probe arrays was used instead of U95A-set Gene Chip probe arrays.
Expression values (threshold cycle [Ct]) were normalized to Rplp0 by negatively transforming the Ct values to −dCt (IL17A was normalized to hARP, as analysed by qPCR). The undetected −dCt values were estimated for each gene as the 20% of the minimum across all samples. qRT-PCR expression data were modelled using a mixed effect model with Visit and Treatment Area as a fixed effect and a random intercept for each patient. This formulation intrinsically models the within patient correlation structure as in the case of a paired t-test. This approach introduces less bias than restricting the analysis for those patients who completed the study. Contrasts were used to estimate the fold changes with treatment within each treatment group and conduct hypothesis testing.

[2] = system: skin barrier and inflammation biomarkers in lesional skin biopsies; assay: Biomarker gene expression in lesional skin biopsies by microarray (Affymetrix U133A Plus 2), Example 3; assay type: in vivo, human
Method: as §1, §2, §3
Experimental design: The hybridization strategy was in concordance with experimental design principles, by for example keeping all samples from the same patient in the same date, and always include samples from every treatment arm/group.
Quality Control and Pre-processing: Quality control of microarray chips were carried out using standard QC metrics and R package microarray Quality Control. Expression measures were obtained using GCRMA algorithm (Wu & Irizarry, 2004). Several visual and modelling techniques were used to elucidate if batch effect existed. Principal Component analysis plots were used to detect if any evident batch effect existed. If such batch effects were found, they were adjusted using Combat, an empirical Bayes method for adjusting data for batch effects that is robust to outliers in small sample sizes (Johnson, Li, & Rabinovic, 2007). The implementation of Combat by package sva was used.
Probe-sets with at least 5% samples with expression larger than 3 (in log 2-scale) were kept for further analysis. Expression values were modelled using mixed-effect models with fixed factors Visit and Treatment Area and a random effect for each patient. Fold changes for the comparisons of interest were estimated and hypothesis testing was conducted on such comparisons using contrasts under the general framework for linear models in limma package. The inter-replicate correlation was computed by Duplicate Correlation function and the linear model was estimated by ImFit. P-values from the moderated (paired) t-test were adjusted for multiple hypotheses using the Benjamini-Hochberg procedure, which controls for FDR.

[3] = system: CD3, langerin, CD11c and FceR1 cells in skin biopsies; assay: Immunohistochemistry (IHC) of cell markers in lesional skin biopsies, Example 3; assay type: in vivo, human; conditions: Day 22, 2% topical
Method: as §2, §3

[4] = system: dendritic cells; conditions: in-vitro; cited from earlier work
[5] = system: biomarkers in lesional AD skin; conditions: 4 weeks, qRT-PCR; cited from earlier work
[6] = microarray fold change, Day 22, sign as niclosamide vs vehicle
[7] = only responder population, 3 weeks, Microarray

O=C(Nc1ccc([N+](=O)[O-])cc1Cl)c1cc(Cl)ccc1O [Niclosamide, niclosamide]
CCL17, Niclosamide 2% qd vs. predose [1]: −3.42^d
CCL18, Niclosamide 2% qd vs. predose [1]: −3.46^d
CCL20, Niclosamide 2% qd vs. predose [1]: −2^d
CCL22, Niclosamide 2% qd vs. predose [1]: −2.56^d
CXCL1, Niclosamide 2% qd vs. predose [1]: −3.82^d
CXCL2, Niclosamide 2% qd vs. predose [1]: −2.11^d
CXCL10, Niclosamide 2% qd vs. predose [1]: −1.96^d
DEFB4B, Niclosamide 2% qd vs. predose [1]: −7.18^c
FLG, Niclosamide 2% qd vs. predose [1]: 2.06^e
IL5, Niclosamide 2% qd vs. predose [1]: −3.69^d
IL10, Niclosamide 2% qd vs. predose [1]: −2.16^d
IL13, Niclosamide 2% qd vs. predose [1]: −3.18^d
IL17A, Niclosamide 2% qd vs. predose [1]: −3.12^d
IL17C, Niclosamide 2% qd vs. predose [1]: −3.91^d
IL19, Niclosamide 2% qd vs. predose [1]: −6.65^c
K16/KRT16, Niclosamide 2% qd vs. predose [1]: −8.46^c
LOR, Niclosamide 2% qd vs. predose [1]: 2.84^f
MMP12, Niclosamide 2% qd vs. predose [1]: −5.12^c
PI3, Niclosamide 2% qd vs. predose [1]: −11.2^b
S100A12, Niclosamide 2% qd vs. predose [1]: −10.5^b
CXCL1, 2% niclosamide compared to vehicle [2, 6]: −2.10
S100A12, 2% niclosamide compared to vehicle [2, 6]: −2.30
CD3d, Niclosamide 2% qd vs. predose [2, 7]: −2.2^d
IL4R, Niclosamide 2% qd vs. predose [2, 7]: −2.19^d
IL15, Niclosamide 2% qd vs. predose [2, 7]: −1.59^d
IL22, Niclosamide 2% qd vs. predose [2, 7]: −2.1^d
JAK3, Niclosamide 2% qd vs. predose [2, 7]: −1.86^d
S100A8, Niclosamide 2% qd vs. predose [2, 7]: −1.82^d
S100A9, Niclosamide 2% qd vs. predose [2, 7]: −5.15^d
STAT3, Niclosamide 2% qd vs. predose [2, 7]: −1.54^d
inflammatory cells (dendritic cells: CD11c, FceR1 in epidermis; Langerhans cells: langerin/CD207) compared to baseline [3]: Significant reductions in inflammatory cells
total amount of T cells (dermis and epidermis) compared to baseline [3]: No significant change
LPS-induced dendritic cell maturation, cytokine, costimulatory and MHC molecule expression [4]: inhibitory action

Dupilumab: inhibits interleukin-4 and interleukin-13 signalling by binding to interleukin-4 receptor α
CCL17, Dupilumab 300 mg vs. predose [5]: −9.2^b
CCL18, Dupilumab 300 mg vs. predose [5]: −7.6^c
CCL22, Dupilumab 300 mg vs. predose [5]: −2.1^d
CCL26, Dupilumab 300 mg vs. predose [5]: −6.3^c
K16/KRT16, Dupilumab 300 mg vs. predose [5]: −10.7^b
MMP12, Dupilumab 300 mg vs. predose [5]: −14^b
S100A8, Dupilumab 300 mg vs. predose [5]: −3^d
S100A12, Dupilumab 300 mg vs. predose [5]: −10.4^b

From patent US20220265683A1, “HALOGENATED SALICYLANILIDES FOR THE TREATMENT OF DERMATITIS” (priority 2018, published 2022)
